“And” between values parts separate entries of the source, which are not always exact repeats. Equal entries are not always repeated. Where two headings read alike, the source gives them in different places. Ends that are not written are not given here.

The record followed here is patent US10174339B2 (priority 2011, dated 2019).

The subject of assay [1] is Fusarium graminearum. It counts as cell-based. The note with it: for inhibition of growth of F. graminearum, more than NaD1: 0.825 ppm; for IC50: read-out: IC50 against Fusarium graminearum (Fgr).
Another assay relates to Aspergillus niger. It counts as cell-based.
The subject of assay [2] is Asian soybean rust (Phakopsora pachirhizi). Format: cell-based. Particulars: 10 ppm.
For the next assay, the system named is C. neoformans (C2067). It counts as cell-based, Cryptococcus neoformans. Particulars: 6.5 ppm.
Assay [3] deals with Colletotrichum graminicola. It counts as cell-based. Particulars: 13 ppm.
A further assay concerns C. gattii. Format: cell-based, Cryptococcus gattii.
Assay [4] concerns Colletotrichum graminicola. Format: cell-based.
For assay [5], the system named is Fusarium graminearum. It counts as cell-based.
The test system of assay [6] is Cryptococcus neoformans (C1065). It counts as cell-based. Particulars: 13 ppm.
Assay [7] relates to Colletotrichum graminicola. The assay is described as follows: Transgenic corn leaf sheath bioassay, lesion area, C. graminicola. The note with it: in vivo.
In the next assay the test system is Fusarium verticilloides. It counts as cell-based. The note with it: 3.25 ppm.
Assay [8] deals with Fusarium graminearum. The note with it: in vivo.

For “HXP4: NaD2 Loop 1B (HRFKGP) in NaD1 backbone, SEQ ID NO:39 (RECKTESHRFKGPCITKPPCRKACISEKFTDGHCSKILRRCLCTKPC; ends and bridges not checked; cysteine pairing not given here)”, in the assay on Fusarium graminearum [1], the “inhibition of growth of F. graminearum, more than NaD1” value was 41.7%. Moreover, in the assay on Aspergillus niger (13 ppm), the “activity expressed as percent of NaD1, A. niger” value is “greater than 112%” and the “inhibition of growth of A. niger, more than NaD1” value (from here on “inhibition of growth of A. niger”) stood at 20.6%. For the same molecule, the “inhibition of growth of A. niger” value in the assay with Aspergillus niger (26 ppm) is listed as “at least 10%”. For the same molecule, in the assay on Aspergillus niger (53 ppm), the “inhibition of growth of A. niger” value is “at least 10%”. In [2] (24 hours), the “inhibition of appresorium formation, more than NaD1” value is recorded as 65% and the “inhibition of germination of Asian soybean rust, more than NaD1” value amounted to 62%. In addition, the “inhibition of formation of post-appresorium structures, more than NaD1” value in assay [2] (48 hours) was determined as 59%. Moreover, the “inhibition of growth of C. neoformans (C2067)” value in the assay with C. neoformans (C2067) is recorded as “more than 80%”. Also, the “inhibition of growth of C. graminicola, more than NaD1” value in [3] is listed as 61.3%. Besides, the “inhibition of growth of C. gatti, more than NaD1” value with C. gattii (6.5 ppm) was found to be 38%. Moreover, in the assay with C. gattii (13 ppm), the “inhibition of growth of C. gatti, more than NaD1” value was 10%. Also, the “synergy with protease inhibitors against Colletotrichum graminicola” value in assay [4] is on record as “synergistic with protease inhibitors”. Further, the “synergistic effect with protease inhibitors against Fusarium graminearum” value with Fusarium graminearum [5] is “greater synergistic effect with protease inhibitors than NaD1”. For the same molecule, in [6], the “activity as percent of the activity of NaD1, C. neoformans (C1065)” value is listed as “more than 596%” and the “inhibition of growth of Cryptococcus neoformans (C1065)” value is “completely inhibited”. Also, in assay [7], the “Percent inhibition relative of empty vector control (reduction in lesion area), Cgr” value was 26%. Also, the “inhibition of growth of F. verticilloides, more than NaD1” value in the assay with Fusarium verticilloides was 40.9%.

Regarding “HXP34: Zea2 Loop 1B (QHHSFP) in NaD1 backbone, SEQ ID NO:40 (RECKTESQHHSFPCITKPPCRKACISEKFTDGHCSKILRRCLCTKPC; ends and bridges not checked; cysteine pairing not given here)”, the “inhibition of growth of F. graminearum, more than NaD1” value in the assay on Fusarium graminearum [1] was found to be 14.6%. In assay [3], the “inhibition of growth of C. graminicola, more than NaD1” value is 21.8%. For the same molecule, the “inhibition of growth of F. verticilloides, more than NaD1” value in the assay on Fusarium verticilloides is on record as 29.4%.

As for “HXP35: PSD1 Loop 1B (DTYRGV) in NaD1 backbone, SEQ ID NO:41 (RECKTESDTYRGVCITKPPCRKACISEKFTDGHCSKILRRCLCTKPC; ends and bridges not checked; cysteine pairing not given here)”, the “inhibition of growth of F. graminearum, more than NaD1” value in the assay on Fusarium graminearum [1] is recorded as 34.5%. Moreover, the “inhibition of growth of C. graminicola, more than NaD1” value in [3] was determined as 83.2%. The “inhibition of growth of F. verticilloides, more than NaD1” value with Fusarium verticilloides amounted to 5.1%.

Take “HXP107: NaD2 Loop 1B in TPP3 backbone, SEQ ID NO:85 (QQICKAPSHRFKGPCFMDSSCRKYCIKEKFTGGHCSKLQRKCLCTKPC; Synthetic construct TPP3 backbone with NaD2 Loop 1B)”: the IC50 with Fusarium graminearum [1] is 500 nM.

On to “TPP3: Class II solanaceous defensin (Solanum lycopersicum), SEQ ID NO:5, parent protein of HXP107 (QQICKAPSQTFPGLCFMDSSCRKYCIKEKFTGGHCSKLQRKCLCTKPC; Synthetic construct Amino acid sequence of portion of TPP3 (Solanum lycopersicum) containing Loop 1B) [reference compound]”, for which the IC50 in the assay with Fusarium graminearum [1] was 200 nM.

B1: NaPin1A: Nicotiana alata type I proteinase inhibitor (protein)
chain: QSGCPGVTKERWPELLGTPAKFAMQIIQKENPKLTNVQTILNGRPVTEDLRCNRVRLFVNVLDFVVQTPQVG
modifications: Synthetic construct Amino acid sequence of NaPin1A
With B1, in assay [4], the “Ee, expected effect from the additive response (Limpel's formula)” value is 11.8 percent inhibition and the “Io, percent inhibition observed” value is 69.3 percent inhibition.

B2: CI-1B: barley type-I inhibitor, recombinant (protein)
chain: MRSMEGSVPKYPEPTEGSIGASGAKRSWPEVVGMSAEKAKEIILRDKPDAQIEVIPVDAMVPLDFNPNRIFILVAVARTPTVG
modifications: Synthetic construct Amino acid sequence of CI-1B
B2: in the assay with Fusarium graminearum [5], the “Ee, expected effect from the additive response (Limpel's formula)” value was 12.1 percent inhibition and 17.1 percent inhibition.

B3: HXP4 + HvCPI6: barley cystatin HvCPI6 and modified defensin HXP4 co-expressed from one construct in corn, SEQ ID NO:83 (protein)
chain: MANKHLSLSLFLVLLGLSASLASGATSALGRRGVLLGGWSPVKDVNDPHVQELGGWAVAQHASLAKDGLLFRRVTRGEQQVVSGMNYRLFVVAADGSGKRVTYLAQIYEHWSRTRKLTSFKPAAGGEEKKNRECKTESNTFPGICITKPPCRKACISEKFTDGHCSKILRRCLCTKPCVFDEKMTKTGAEILAEEAKTLAAALLEEEIMDN
modifications: Synthetic construct Amino acid sequence of HvCPI6-L-HXP4-CTPP
Consider B3, for which, in the assay with Fusarium graminearum [8], the “Percent inhibition relative of empty vector control (reduction in lesion area), Fgr” value is 45%.

In general, IC50 refers to the concentration that gives 50% inhibition.
